The values below are quoted from earlier work in US20240325430A1, “MULTIPLE FOLATE FORMULATION AND USE THEREOF” (JAYMAC PHARMACEUTICAL LLC, priority 2012, published 2024).

Structures are written as SMILES.

The series concerns hydrocephalic Texas rats. As to conditions: injected into hydrocephalic Texas rats during fetal development; J Neuropathol Exp Neurol 2009.

`Nc1nc2ncc(CNc3ccc(C(=O)N[C@@H](CCC(=O)O)C(=O)O)cc3)nc2c(=O)[nH]1` [folic acid]: the incidence of hydrocephalus entry is “significant increase”.
